From patent US20230203041A1, “ANTAGONISTS OF THE ADENOSINE A2A RECEPTOR” (AdoRx Therapeutics Limited, priority 2020, published 2023)

What was measured:
[1] = molecular target: T1, human Adenosine A2a receptor (Homo sapiens, UniProt P29274); test: Adenosine receptor TR-FRET binding assay (CA200645 displacement), A2a; settings: 100 nM CA200645, CHO cell membranes, 2 hours at room temperature
T1 construct: expressed in transfected cells; host or cells: CHO cell membranes
Protocol: All FRET binding experiments were conducted at room temperature in white 384-well plates, in assay binding buffer containing 1×LabMed (Cisbio, France), 100 μg/mL saponin, 1% DMSO and 0.02% pluronic acid. Binding of the fluorescently labelled Adenosine receptor antagonist XAC (CA200645, FRET acceptor) to terbium-labelled A1, A2a, A2b and A3 adenosine receptors (FRET donors) was detected by time-resolved FRET due to the close proximity of the donor and acceptor in a binding event. To investigate the ability of unlabelled test compounds to bind to Adenosine A1, A2a, A2b and A3 receptors, dose response curves were constructed that determined the ability of a range of concentrations to inhibit the binding of 30 nM CA200645 to the A2b receptor and 100 nM CA200645 to the A1, A2a, and A3 receptor.
Serial dilution (1:3 dilutions) of test compounds in neat DMSO and transfer of a 400 nL sample of test compound into the assay plate was carried out using the Mosquito (TTP Labtech, UK). The compound samples were incubated for 2 hours at room temperature with a fixed concentration of CA200645 defined for each receptor (see above) and CHO cell membranes containing the human Adenosine A1 (0.5 μg/well), A2a (0.3 μg/well), A2b (1 μg/well) or A3 (1 μg/well) receptor in 40 μL of assay buffer. Total and non-specific binding of CA200645 was determined in the absence and presence of 10 μM XAC, respectively. Following 2 hours incubation, the level of CA200645 binding was detected on a Pherastar FSX (BMG Labtech, Germany) using standard TR-FRET settings. The terbium donor was excited with three laser flashes at a wavelength of 337 nm, and donor and acceptor emission was detected at 620 nm and 665 nm wavelengths, respectively. FRET ratios were obtained by multiplying the acceptor/donor ratio value by 10,000. Specific binding was determined by subtracting the non-specific binding FRET ratio from the total binding FRET ratio. Compound IC50 curves were analysed using GraphPad Prism 7.0 (GraphPad, USA) and Ki affinity values were determined from the obtained IC50 values using the method of Cheng and Prusoff.

[2] = molecular target: T2, human Adenosine A2b receptor (Homo sapiens, UniProt P29275); test: Adenosine receptor TR-FRET binding assay (CA200645 displacement), A2b; settings: 30 nM CA200645, CHO cell membranes, 2 hours at room temperature
T2 construct: expressed in transfected cells; host or cells: CHO cell membranes
T2 sequence (P29275 1-332): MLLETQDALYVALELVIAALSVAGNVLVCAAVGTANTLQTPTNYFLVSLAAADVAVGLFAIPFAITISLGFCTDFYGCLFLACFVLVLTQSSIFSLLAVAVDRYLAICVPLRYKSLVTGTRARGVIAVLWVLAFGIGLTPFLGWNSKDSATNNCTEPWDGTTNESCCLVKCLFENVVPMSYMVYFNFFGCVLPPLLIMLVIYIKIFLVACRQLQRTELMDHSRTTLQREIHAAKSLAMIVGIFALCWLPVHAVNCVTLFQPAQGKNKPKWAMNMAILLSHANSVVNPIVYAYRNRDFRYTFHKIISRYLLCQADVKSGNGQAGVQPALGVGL

human PBMCs = test: CD3/CD28 stimulated IL-2 release NECA reversal assay in human PBMCs; assay type: cell-based; settings: PBMC, CD3/CD28 antibody stimulated, 1 uM NECA, 24 hours, IL-2 in culture supernatant;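 note: dose-response as % inhibition where 100% equals no-NECA control wells with CD3/CD28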
Outline: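 PBMCs from citrated donor blood, 50,000 cells/well on plate-bound CD3 antibody (1 ug/ml), with 1 ug/ml CD28 antibody, 1 uM NECA and antagonist at 0.003-10 μM final. After 24 h at 37° C, supernatant IL-2 was measured by MSD immunoassay.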

[3] = test system: CD8+ T cells in human whole blood; test: Measurement of pCREB in CD8+ T cells in human whole blood; assay type: cell-based; settings: T-cell, 1 h; heparinised human whole blood, rolipram, 3 μM NECA, 60 min, phospho-CREB in CD8+ T cells by FACS
Outline: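 Heparinised human whole blood preincubated 20 min at 37 °C with serially diluted A2a antagonists plus rolipram, then stimulated 60 min with 3 μM NECA (final). After fixation and RBC lysis, permeabilized leukocytes stained for phospho-CREB and CD8; pCREB in CD8+ T cells read by flow cytometry.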

[4] = molecular target: T3, human Adenosine A1 receptor (Homo sapiens, UniProt P30542); test: Adenosine receptor TR-FRET binding assay (CA200645 displacement), A1
T3 sequence (P30542 1-326): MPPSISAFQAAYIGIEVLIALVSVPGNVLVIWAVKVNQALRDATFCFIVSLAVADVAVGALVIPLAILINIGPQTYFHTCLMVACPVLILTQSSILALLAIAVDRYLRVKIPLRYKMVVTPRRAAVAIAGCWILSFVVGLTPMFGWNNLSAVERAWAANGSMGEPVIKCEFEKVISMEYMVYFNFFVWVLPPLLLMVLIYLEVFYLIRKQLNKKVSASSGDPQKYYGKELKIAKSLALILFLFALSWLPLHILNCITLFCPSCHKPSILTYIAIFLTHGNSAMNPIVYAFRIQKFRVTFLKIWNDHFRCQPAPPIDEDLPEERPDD

[5] = molecular target: T4, human Adenosine A3 receptor (Homo sapiens, UniProt P0DMS8); test: Adenosine receptor TR-FRET binding assay (CA200645 displacement), A3
T4 sequence (P0DMS8 1-318): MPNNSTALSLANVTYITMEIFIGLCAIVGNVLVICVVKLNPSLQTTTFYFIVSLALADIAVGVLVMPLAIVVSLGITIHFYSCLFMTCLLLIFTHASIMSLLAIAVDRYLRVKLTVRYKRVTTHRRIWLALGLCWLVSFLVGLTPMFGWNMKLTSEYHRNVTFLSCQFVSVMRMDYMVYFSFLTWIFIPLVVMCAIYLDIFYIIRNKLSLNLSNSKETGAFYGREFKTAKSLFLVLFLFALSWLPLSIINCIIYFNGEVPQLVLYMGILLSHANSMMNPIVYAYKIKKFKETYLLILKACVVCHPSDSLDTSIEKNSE

T1 sequence (P29274 whole entry): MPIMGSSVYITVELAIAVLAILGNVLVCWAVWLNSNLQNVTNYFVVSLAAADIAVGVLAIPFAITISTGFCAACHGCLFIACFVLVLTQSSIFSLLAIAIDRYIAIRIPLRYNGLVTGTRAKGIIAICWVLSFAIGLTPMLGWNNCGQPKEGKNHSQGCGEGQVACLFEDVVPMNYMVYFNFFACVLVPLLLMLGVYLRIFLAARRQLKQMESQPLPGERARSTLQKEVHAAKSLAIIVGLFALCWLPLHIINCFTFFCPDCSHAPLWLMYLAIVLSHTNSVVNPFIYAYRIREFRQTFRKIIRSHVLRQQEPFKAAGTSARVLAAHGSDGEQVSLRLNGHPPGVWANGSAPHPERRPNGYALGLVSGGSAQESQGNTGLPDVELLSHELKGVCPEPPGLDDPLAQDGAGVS

Row | Ki [1] [nM] | Ki [2] [nM] | IC50 [3] [nM] | Ki [4] [nM] | Ki [5] [nM] | Structure (SMILES) | IC50 (human PBMCs) [nM]
1 | 0.4 | 5 | 280 | 143 | > 1000 | Cc1cc(-c2c(-c3cccc(C#N)c3)nn3ccc(C(=O)NCCC(C)(C)N)nc23)cc(Cl)n1 [Example 7, N-(3-Amino-3-methyl-butyl)-3-(2-chloro-6-methyl-4-pyridyl)-2-(3-cyanophenyl)pyrazolo[1,5-a]pyrimidine-5-carboxamide] | 34
2 | 0.7 | 3 | 240 | 115 | > 1000 | Cc1cc(-c2c(-c3cccc(C#N)c3)nn3ccc(C(=O)NC[C@@H](O)CO)nc23)cc(Cl)n1 [Example 6.15, 3-(2-Chloro-6-methyl-4-pyridyl)-2-(3-cyanophenyl)-N-[(2R)-2,3-dihydroxypropyl]pyrazolo[1,5-a]pyrimidine-5-carboxamide] | 14
3 | 0.6 | 2 | 70 | 160 | > 1000 | Cc1cc(-c2c(-c3cccc(C#N)c3)nn3ccc(C(=O)N[C@H](C)[C@H](O)CO)nc23)cc(Cl)n1 [Example 7.9, 3-(2-Chloro-6-methyl-4-pyridyl)-2-(3-cyanophenyl)-N-[(1 R,2S)-2,3-dihydroxy-1-methyl-propyl]pyrazolo[1,5-a]pyrimidine-5-carboxamide] | 4
4 | 2.2 | 9 | 250 | 37 | > 1000 | Cc1cc(-c2c(-c3cccc(C#N)c3)nn3ccc(N)nc23)cc(C)n1 [Example 1.6, 3-[5-amino-3-(2,6-dimethyl-4-pyridyl)pyrazolo[1,5-a]pyrimidin-2-yl]benzonitrile] | 57
5 | 1.8 | 14 | 120 | 47 | > 1000 | Cc1cc(-c2c(-c3cccc(C#N)c3)nn3ccc(NC(N)=O)nc23)cc(C)n1 [Example 30.3, [2-(3-Cyanophenyl)-3-(2,6-dimethyl-4-pyridyl)pyrazolo[1,5-a]pyrimidin-5-yl]urea] | 50
6 | 0.9 | 2 | 160 | 232 | > 1000 | Cc1cc(-c2c(-c3cccc(C#N)c3)nn3ccc(C(=O)NCC(C)(O)CO)nc23)cc(Cl)n1 (stereo not drawn) [Example 6.9, 3-(2-Chloro-6-methyl-4-pyridyl)-2-(3-cyanophenyl)-N-(2,3-dihydroxy-2-methyl-propyl)pyrazolo[1,5-a]pyrimidine-5-carboxamide] | 10
7 | 1.2 | 9 | 380 | 46 | 1920 | Cc1cc(-c2c(-c3cccc(C#N)c3)nn3ccc(OCC(C)(C)O)nc23)cc(Cl)n1 [Example 15, 3-[3-(2-Chloro-6-methyl-4-pyridyl)-5-(2-hydroxy-2-methyl-propoxy)pyrazolo[1,5-a]pyrimidin-2-yl]benzonitrile] | 2
8 | 0.6 | 1 | 750 | 74 | > 1000 | Cc1cc(-c2c(-c3cccc(C#N)c3)nn3ccc(NC[C@@H](C)O)nc23)cc(Cl)n1 [Example 3, 3-[3-(2-Chloro-6-methyl-4-pyridyl)-5-[[(2R)-2-hydroxypropyl]amino]pyrazolo[1,5-a]pyrimidin-2-yl]benzonitrile] | 17
9 | 0.4 | 74 | 330 | 223 | > 1000 | Cc1cc(-c2c(-c3cccc(C#N)c3)nn3ccc(C(=O)NC(C)(C)C(C)(C)O)nc23)cc(Cl)n1 [Example 6.23, 3-(2-Chloro-6-methyl-4-pyridyl)-2-(3-cyanophenyl)-N-(2-hydroxy-1,1,2-trimethyl-propyl)pyrazolo[1,5-a]pyrimidine-5-carboxamide] | 5.7
10 | 4.2 | 25 | 1060 | 189 | > 1000 | Cc1cc(-c2c(-c3cccc(C#N)c3)nn3ccc(NC[C@H]4COCCN4)nc23)cc(Cl)n1 [Example 4.5] | 12
11 | 0.7 | 2 | 2820 | 53 | > 1000 | CCN1CCC(Nc2ccn3nc(-c4cccc(C#N)c4)c(-c4cc(C)nc(Cl)c4)c3n2)CC1 [Example 2.4] | 32
12 | 0.6 | 30 | 430 | 402 | 1820 | Cc1cc(-c2c(-c3cccc(C#N)c3)nn3ccc(C(=O)N[C@H](C)C(C)(C)O)nc23)cc(Cl)n1 [Example 6.4, 3-(2-Chloro-6-methyl-4-pyridyl)-2-(3-cyanophenyl)-N-[(1 R)-2-hydroxy-1,2-dimethyl-propyl]pyrazolo[1,5-a]pyrimidine-5-carboxamide] | 6
13 | 1.4 | 10 | 1190 | 119 | 1550 | Cc1cc(-c2c(-c3cccc(C#N)c3)nn3ccc(N[C@H]4C[C@@H](O)C4)nc23)cc(Cl)n1 [Example 2.10] | 48
14 | 8 | 50 | 890 | 692 | > 1000 | CC(=O)N1CCC(Nc2ccn3nc(-c4cccc(C#N)c4)c(-c4cc(C)nc(C)c4)c3n2)CC1 [Example 105.1, 3-[5-[(1-Acetyl-4-piperidyl)amino]-3-(2,6-dimethyl-4-pyridyl)pyrazolo[1,5-a]pyrimidin-2-yl]benzonitrile] | 33
15 | 6.4 | 3 | 570 | 55 | > 1000 | Cc1cc(-c2c(-c3cccc(C#N)c3)nn3ccc(NCc4nnc[nH]4)nc23)cc(Cl)n1 [Example 2.23] | 24
16 | 0.1 | 3 | 1570 | 15 | > 1000 | Cc1cc(-c2c(-c3cccc(C#N)c3)nn3ccc(NC4CCNCC4)nc23)cc(Cl)n1 [Example 4, 3-[3-(2-Chloro-6-methyl-4-pyridyl)-5-(4-piperidylamino)pyrazolo[1,5-a]pyrimidin-2-yl]benzonitrile] | 8
17 | 0.3 | 22 | 1460 | 5 | 186 | Cc1cccnc1CNc1ccn2nc(-c3ccco3)c(C#N)c2n1 [Example 37, 2-(2-Furyl)-5-[(3-methyl-2-pyridyl)methylamino]pyrazolo[1,5-a]pyrimidine-3-carbonitrile] | 13
18 | 0.7 | 19 | 560 | 204 | > 1000 | Cc1cc(-c2c(-c3cccc(C#N)c3)nn3ccc(C(=O)N[C@H]4C[C@@H](O)C4)nc23)cc(Cl)n1 [Example 6.20, 3-(2-Chloro-6-methyl-4-pyridyl)-2-(3-cyanophenyl)-N-(cis-3-hydroxycyclobutyl)pyrazolo[1,5-a]pyrimidine-5-carboxamide] | 36.3
19 | 1.5 | 21 | 580 | 260 | > 1000 | Cc1cc(-c2c(-c3cccc(C#N)c3)nn3ccc(C(=N)N)nc23)cc(C)n1 [Example 97, 2-(3-Cyanophenyl)-3-(2,6-dimethyl-4-pyridyl)pyrazolo[1,5-a]pyrimidine-5-carboxamidine] | 38
